Several values for one entry are separate records, joined by “and”; a condition that tells them apart may be missing. Equal entries are not always repeated. Entries after “also recorded” stand apart in the source; their conditions may differ. Where two headings read alike, the source gives them in different places.
Legend:
[1] = in vivo; cited from earlier work
[2] = biological target: muscarinic receptors; type: binding, rat; settings: Table 2
Experimental: The potencies of ligand binding at central muscarinic binding sites were determined by analysis of competition with the specific muscarinic receptor radioligand [^3 H]-quinuclidinyl benzilate ([^3 H]-QNB). […] Competition between various concentrations of putative nicotinic ligand compounds and 0.2 nM [^3 H]-QNB was performed at 25° C. in an assay volume of 1 mL. After 75 minutes, the bound radioligand was separated by vacuum filtration on Whatman GF/B glass fiber filters. Non-specific binding was defined as radioactivity remaining in the presence of 10 μM atropine. Competition curves were analyzed for Ki values as described above for binding to the nicotinic receptor.

[3] = biological target: neuronal nicotinic receptors; test: Displacement of [3H]-MCC or [3H]-cytisine from neuronal nicotinic receptors, whole rat brain membranes; type: binding
Experimental: Binding of [^3 H]-methylcarbamylcholine ([^3 H]-MCC) or [^3 H]-cytisine ([^3 H]-CYT) to nicotinic receptors was accomplished using crude synaptic membrane preparations from whole rat brain (Snyder and Enna, Brain Research, 1975, 100:81). Washed membranes were stored at -80° C. prior to use. Frozen aliquots were slowly thawed and resuspended in 20 volumes of buffer (containing: 120 mM NaCl, 5 mM KCl, 2 mM MgCl2, 2 mM CaCl2 and 50 mM Tris-Cl, pH 7.4 @4° C). After centrifuging at 20,000 X g for 15 minutes, the pellets were resuspended in 30 volumes of buffer. Homogenate (containing 125-150 μg protein) was added to triplicate tubes containing concentrations of test compound and [^3 H]-MCC (3 nM) in a final volume of 500 μL. Samples were incubated for 60 minutes at 4° C., then rapidly filtered through Whatman GF/B filters presoaked in 0.5% polyethylimine using 3×4 mL of ice-cold buffer. Alternately, homogenate and test compound were incubated for 75 min with [^3 H]-CYT (1.3 nM), then rapidly filtered, as described above. The filters are counted in 4 mL of Ecolume® (ICN). […] IC50 values were determined with the ALLFIT nonlinear least squares curve-fitting program and IC50 values were converted to Ki values using the Cheng and Prusoff correction (Ki =IC50 /(1+[ligand]/Kd of ligand)). Alternately, data were expressed as a percentage of the total specific binding.

[4] = tested on: ethanol-induced narcosis; settings: literature knowledge; cited from earlier work
[5] = tested on: resting cortical perfusion in the parietotemporal cortex; settings: humans; cited from earlier work
[6] = tested on: neuronal nicotinic cholinergic channels in PC12 cells; test: Cholinergic channel activator action in PC12 cells, whole-cell patch-clamp; type: cell-based, rat
Experimental: Electrophysiologic recordings were obtained from differentiated (neurite-bearing) cells after 4-7 days exposure to NGF. […] After 20 minutes, differentiating medium was added (DMEM containing 100 ng/ml nerve growth factor, 5% heat-inactivated fetal calf serum and 2.5% heat-inactivated horse serum) and the cells were refed with this medium every 3 days.
The intracellular (recording pipette) solution consisted of 140 mM KCl, 1.0 mM CaCl2, 2.0 mM MgCl2, 11 mM K-EGTA, and 10 mM K-HEPES buffer (7.3 pH, 315 mOsm). Osmolarities were adjusted using dextrose such that the extracellular solution was 10 mOsm hypertonic compared to the intracellular solution. Voltage-gated inward (sodium) and outward (potassium) currents were monitored throughout the experiment to determine establishment and maintenance of the whole-cell recording configuration.

[7] = tested on: spike wave discharges; test: Attenuation of petit mal absence-like spike wave discharges (EEG); type: in vivo, male Wistar rats; settings: for Total spike wave duration: 5.0 μmol/kg i.p.; for effect on incidence of spike wave discharges: i.p., 20 min waking immobility, p<0.05 where significant
Experimental: Animals: Male albino rats of the Wistar strain (CAMM Research) were maintained on a 12:12 hour light-dark cycle and individually housed throughout these experiments. They were fed standard rodent diet with food and water provided ad libitum.
EEG Recordings: To record spike wave discharges, rats were surgically implanted with permanently affixed EEG electrodes over the frontal codex using previously described techniques (Radek, Brain Res., 1993, in press). After at least a ten day recovery from this surgery, EEG recordings were made inside darkened sound attenuating chambers. Rats were allowed to move freely within the chambers and computerized activity monitors recorded animal motion during these studies. Only those rats that express spike wave discharges, as identified from preliminary recordings, were used to test the effects of nicotinic agents.
Drug studies: EEG recordings were obtained from each rat for a period of 20 minutes of total waking immobility immediately after administration of drug, or a drug-free control solution. Immobility was characterized as the absence of infrared beam interruptions from the activity monitor system. Spike wave activity was identified as regular 6-10 Hz complexes with amplitudes of 0.4 to 1.0 mV. The total spindling duration for 20 minutes of waking immobility was calculated by determining the length (in seconds) of each spike wave burst, and adding each of these times together to obtain a total spindle time for the recording session. Each rat was administered the control solution and one or two doses of the test compounds and each dosing was given at least 48 hours after the previous treatment.
The compound of Example 2 was dissolved in saline to the desired concentration.

[8] = tested on: anxiety induced by (-)-nicotine withdrawal; test: Elevated plus-maze 48 hours after withdrawal of 14-day chronic (-)-nicotine; type: in vivo, rats
Text: The mouse elevated plus-maze is a conflict test that probes anxiolytic activity of test compounds (Lister, Psychopharmacology, 1987, 92:180). It is based on the fact that exposure of mice to an elevated open arm leads to an avoidance response considerably stronger than that evoked by exposure to an enclosed arm. Compounds may be tested for their ability to modify the avoidance response of the animal to the open arm maze. […] The effect of such potential anti-anxiety drugs may be tested further in a withdrawal challenge test.
Elevated Plus-Maze: The procedure originally described by Pellow et al., for rats was used, with minor modifications (Pellow et al., J. Neurosci. Meth., 14: 149, 1985). The apparatus consisted of two open arms (50×10 cm) and two enclosed arms (50×10×40 cm) extending from a central platform (10×10 cm). It was mounted on a base raising 50 cm above the floor. Light levels on the open and enclosed arms were similar. The animals were placed in the center of the maze and the time spent in the open arms and the total distance traveled by the rat were recorded automatically by a camera mounted above the apparatus, then analyzed by computer (Videomex™ software, Columbus Instruments, Columbus, Ohio). All animals used were naive to the apparatus. Animals were injected i.p. with saline or the different drug doses, and submitted to the test 30 minutes later. The test lasted 5 minutes, and the apparatus was thoroughly cleaned after removal of the animal.
The pumps were removed on day 14 and the animals were tested in the plus-maze 48 hours later, at the time when a state of withdrawal-induced anxiety was present in the rats. On the test day i.p. doses of either saline or the compound of Example 2 were administered to the animals 30 minutes before the test. Data (Table 13) represent the mean ±SEM time spent in the open arms of the plus-maze of 8-16 rats.

[9] = tested on: time spent in the open arms (anxiolytic activity); test: Mouse elevated plus-maze; type: in vivo, CD1 mice; settings: i.p., p<0.05; for Elevated Plus-Maze (EPM) result: time in open arms
Text: The mouse elevated plus-maze is a commonly-used conflict test that probes anxiolytic activity of test compounds (Lister, Psychopharmacology, 1987, 92 180). It is based on the fact that exposure of mice to an elevated open arm leads to an avoidance response considerably stronger than that evoked by exposure to an enclosed arm.
The apparatus required to perform this test is made of plywood and consists of two open arms (17×8 cm) and two enclosed arms (17×8×15 cm) extending from a central platform (8×8 cm). It is mounted on a plywood base rising 39 cm above the floor. Mice are released on the central platform and the time spent in the open and enclosed arms is recorded during a 5 minute test period.
The compound of Example 2 (0.0108-1.08 μmol/kg, i.p.) was administered to CD1 mice (n=12 per group) 15 minutes before the test.

[10] = tested on: ethanol-induced narcosis; type: in vivo, male CD1 mice; settings: mouse, in vivo
Text: It is known that administration of ethanol to mice induces a state of narcosis in the animals. […] It is also known that certain compounds can modify the narcotic effect of ethanol in this model.
Animals: Male CD1 mice (Charles-River Co., Portage, Mich.) weighing 25-30 g were used in the experiments. Upon arrival they were caged in groups of 14 and allowed to acclimatize to laboratory conditions for one week before the beginning of the studies. They were fed standard rodent diet with food and water ad libitum.
Duration of sleep time: Mice received intraperitoneal (i.p.) injections of ethanol and either saline or one of the drug treatments. Upon loss of the righting reflex, a timer was started to record the duration of the sleep time until the reflex was recovered. Two types of experiments were conducted to study the effect of drugs before (pre-treatment) or after (post-treatment) the injection of the narcotic dose of ethanol. In the pre-treatment experiments the drugs were injected i.p., 15 minutes before ethanol. In the post-treatment experiments the drugs were administered i.p., 1 minute after the animals lost the righting reflex, which was approximately 5 minutes after administration of ethanol.
Drugs: Ethanol was prepared as a 20% v/v (16% w/v) solution in saline. Based on previous studies, a dose of 87 mmol/kg (4 g/kg) was selected as the narcotic dose. RO 15-4513, the benzodiazepine receptor inverse agonist discussed in the Background section, was purchased from RBI (Natick, Mass.). It was dissolved in saline solution with Tween-80 and ultrasonically homogenized for 3 minutes. […] The compounds of Examples 2 and 4, both novel neuronal nicotinic receptor ligands according to the present invention, were also dissolved in saline to the desired concentrations.

[11] = tested on: 1-4 Hz slow wave EEG; test: 1-4 Hz slow wave EEG amplitude; type: in vivo, male Wistar rats
[12] = tested on: effects of ethanol; settings: administered directly into the brain; ethanol i.p.; cited from earlier work
[13] = tested on: retention of the avoidance response; test: Inhibitory avoidance test; type: in vivo; settings: i.p. 15 min before training, retention at 24 h, p<0.05
Text: The inhibitory (or sometimes called passive) avoidance (IA) test is a well-accepted animal model for learning/memory and is widely used to assess the activity of novel cognition enhancers in enhancing cognitive function (Wanibuchi et al., Eur. J. Pharmacol., 1990, 187:479). According to this test, animals are placed in the illuminated (12×14×11 cm) portion of a two-chambered box, from which they enter through a guillotine door to the larger (24×13.5×12 cm) dark compartment of the box. Entry to the dark compartment is accompanied by a mild (0.35 mA), brief (2 seconds) footshock. Initial latencies to cross are recorded, with an imposed 60 second ceiling. Following a 24 hour retention interval, animals are returned to the illuminated chamber, and latency to return to the dark compartment is again recorded, with a ceiling of 180 seconds. No footshock is administered on the test day.
Twelve animals were used in each group.

SMILES: COC(=O)C1=CCCN(C)C1 [Arecoline, reference compound]
- pharmacokinetics [1]: unfavorable pharmacokinetics
- Ki [2]: 5 µM
- Ki ([3]; Table 1, read-out: Nicotinic Receptor Ki): 59 nM
- Ki ([3]; Table 2, read-out: Nicotinic Ki): 59 nM

SMILES: CCCC(C)C1(CC)C(=O)NC(=O)NC1=O (stereo not shown) [pentobarbital]
- effect on ethanol sleep time (known) [4]: potentiate the effect of ethanol by increasing the sleep time

SMILES: CNC1(C)C2CCC(C2)C1(C)C (stereo not shown) [Mecamylamine, mecamylamine]
- effect on resting cortical perfusion [5]: reduces resting cortical perfusion in the parietotemporal cortex of humans
- inhibition of the response to Example 2 ([6]; 10 μM antagonist, Example 2 300 μM, N=3): 81±3%
- Total spike wave duration ([7]; Table 10): 45.7 ± 15.0 s
- Total spike wave duration ([7]; Table 11): 46.8 ± 6.4 s
- effect on incidence of spike wave discharges [7]: did not affect the incidence of spike/wave discharges
- blockade of agonist-induced lowering of spike wave discharges ([7]; mecamylamine with (-)-nicotine or Example 2): blocked the effects of both (-)-nicotine and the compound of Example 2

SMILES: CN1C(=O)CN=C(c2ccccc2)c2cc(Cl)ccc21 [Diazepam, diazepam]
- effect on ethanol sleep time (known) [4]: potentiate the effect of ethanol by increasing the sleep time
- effect on incidence of spike wave discharges [7]: significantly lowered these discharges

SMILES: CN1CCCC1c1cccnc1 (single isomer, unassigned; (-)) [(-)-Nicotine]
- effect on time spent in the open arms ([8]; 48 h after withdrawal of chronic (-)-nicotine): significant reduction in the time spent in the open arms
- TIME OPEN ARMS ([8]; 14 days chronic 10 mg/kg/day then withdrawal, saline challenge, *p < 0.05 against chronic saline, mean ± SEM): 35.1 ± 6.0 s
- Elevated Plus-Maze (EPM) doses with significant effect [9]: 0.62 to 1.9 µmol/kg
- Elevated Plus-Maze (EPM) result [9]: significant increase in the time spent by the mice in the open arms
- Elevated Plus-Maze (EPM) result ([9]; listed as (-)-nicotine): significant
- effect of pre-treatment on ethanol sleeping time [10]: significantly reduced the sleeping time of ethanol in mice
- Sleeping time ([10]; ip): 121 ± 18 % of controls and 149 ± 28 % of controls and 164 ± 32 % of controls and 232 ± 29 % of controls
- effect of post-treatment on ethanol-induced narcosis ([10]; ip): significantly prolonged the narcotic effect of ethanol; also recorded: adversely potentiated the narcotic effect
- 1-4 Hz amplitude ([11]; 1.9 μmol/kg i.p.): 13.2 ± 2.0 μVolts
- effect on low frequency (1-4 Hz) EEG slow-wave patterns ([11]; i.p.): significant (p<0.05, 2-way ANOVA, Fisher post hoc analysis) attenuation
- EC50 ([6]; PC12 cells, mean ± S.E.M.): 52 ± 4 µM
- effect on motor incoordination due to ethanol [12]: significantly attenuate the motor incoordination due to the effects of ethanol
- Inhibitory Avoidance (IA) result [13]: dose-dependent facilitation of retention of the avoidance response
- Inhibitory Avoidance (IA) result ([13]; listed as (-)-nicotine): significant
- effect on incidence of spike wave discharges [7]: significantly lowered the incidence of spike wave discharges
